From US7683062B2, “Crystalline form” (sanofi-aventis U.S. LLC, priority 2005, dated 2010)

Assays:
[1] = system: animal models of rheumatoid arthritis; assay: Animal models of rheumatoid arthritis; type: in vivo; details: by modulating the immune response
[2] = biological target: peripheral-type benzodiazepine receptors (Homo sapiens, UniProt P30536); details: cited from earlier work
[3] = Preliminary absorption studies with standard formulations; type: in vivo
[4] = Stability testing of polymorphic form (FTIR); type: physicochemical
Protocol: Fourier Transform IR spectra were obtained with a Nicolet 750 Magna brand system. The drug substance was ground with dry potassium bromide (KBr) at a concentration of 1 mg drug substance/200 mg KBr and compressed into a disk (200 mg) at 10,000 lbs for analysis.
Samples were analyzed at 2 months. The chamber humidity was controlled via a saturated sodium chloride aqueous solution.

Chain of peripheral-type benzodiazepine receptors (P30536 whole entry): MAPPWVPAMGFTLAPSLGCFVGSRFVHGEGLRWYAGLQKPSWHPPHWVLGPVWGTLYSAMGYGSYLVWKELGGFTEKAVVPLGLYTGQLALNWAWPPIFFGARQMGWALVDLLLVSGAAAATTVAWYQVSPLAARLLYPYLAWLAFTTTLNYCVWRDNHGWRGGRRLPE

Structure (SMILES): CN(C)C(=O)Cc1nn(-c2ccccc2)c(=O)c2c1c1ccc(Cl)cc1n2C [7-Chloro-N,N,5-trimethyl-4-oxo-3-phenyl-3,5-dihydro-4H-pyridazino[4,5-b]indole-1-acetamide]
- pharmacological activity in animal models of rheumatoid arthritis [1]: has shown pharmacological activity
- affinity for the peripheral-type benzodiazepine receptors [2]: high affinity

Structure (SMILES): CN(C)C(=O)Cc1nn(-c2ccccc2)c(=O)c2c1c1ccc(Cl)cc1n2C [Form I, 7-chloro-N,N,5-trimethyl-4-oxo-3-phenyl-3,5-dihydro-4H-pyridazino[4,5-b]indole-1-acetamide]
- absorption of the drug [3]: limited absorption

Structure (SMILES): CN(C)C(=O)Cc1nn(-c2ccccc2)c(=O)c2c1c1ccc(Cl)cc1n2C [Form II, 7-chloro-N,N,5-trimethyl-4-oxo-3-phenyl-3,5-dihydro-4H-pyridazino[4,5-b]indole-1-acetamide]
- physical stability (conversion to Form I by FTIR) ([4]; 50° C./75% relative humidity, open glass vials, two months, FIG. 9): no changes indicative of conversion to Form I
- physical stability (conversion into other form) ([4]; normal storage conditions (room temperature)): does not convert into any other form
